Measurements: PubChem BioAssay AID1963962 (Molecular Pharmacology Branch, DTP, NCI, 2024)
pIC50: −log10 of the molar value.

System: 967376-340-R-J2-PDC multicell spheroid viability
Assay: Anticancer human tumor 967376-340-R-J2-PDC patient-derived colon adenocarcinoma cell line growth inhibition [PI3K]
Conditions: for pIC50: curve of first compound; for viability, T/C: stronger effect = lower value
Method in brief: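 Multi-cell spheroids combine tumor cells with HUVEC and human MSCs, treated with targeted agents alone or with inavolisib, alpelisib, duvelisib or copanlisib. Concentrations fall in half-log steps from at or near clinical Cmax, or from 10 microM where Cmax is unknown; viability read-out.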

[1] = second compound 0.00316 µM, first compound 0.0316 µM
[2] = second compound 0.00316 µM, first compound 0.1 µM
[3] = second compound 0.00316 µM, first compound 0.316 µM
[4] = second compound 0.00316 µM, first compound 1 µM
[5] = second compound 0.00316 µM, first compound 3.16 µM
[6] = second compound 0.00316 µM, first compound 10 µM
[7] = second compound 0.01 µM, first compound 0.0316 µM
[8] = second compound 0.01 µM, first compound 0.1 µM
[9] = second compound 0.01 µM, first compound 0.316 µM
[10] = second compound 0.01 µM, first compound 1 µM
[11] = second compound 0.01 µM, first compound 3.16 µM
[12] = second compound 0.01 µM, first compound 10 µM
[13] = second compound 0.0316 µM, first compound 0.0316 µM
[14] = second compound 0.0316 µM, first compound 0.1 µM
[15] = second compound 0.0316 µM, first compound 0.316 µM
[16] = second compound 0.0316 µM, first compound 1 µM
[17] = second compound 0.0316 µM, first compound 3.16 µM
[18] = second compound 0.0316 µM, first compound 10 µM
[19] = second compound 0.1 µM, first compound 0.0316 µM
[20] = second compound 0.1 µM, first compound 0.1 µM
[21] = second compound 0.1 µM, first compound 0.316 µM
[22] = second compound 0.1 µM, first compound 1 µM
[23] = second compound 0.1 µM, first compound 3.16 µM
[24] = second compound 0.1 µM, first compound 10 µM
[25] = second compound 0.316 µM, first compound 0.0316 µM
[26] = second compound 0.316 µM, first compound 0.1 µM
[27] = second compound 0.316 µM, first compound 0.316 µM
[28] = second compound 0.316 µM, first compound 1 µM
[29] = second compound 0.316 µM, first compound 3.16 µM
[30] = second compound 0.316 µM, first compound 10 µM
[31] = second compound 1 µM, first compound 0.0316 µM
[32] = second compound 1 µM, first compound 0.1 µM
[33] = second compound 1 µM, first compound 0.316 µM
[34] = second compound 1 µM, first compound 1 µM
[35] = second compound 1 µM, first compound 3.16 µM
[36] = second compound 1 µM, first compound 10 µM
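Also: spheroids exposed to agents for 7 days before read-out.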
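For viability, T/C in this document: luminescence used as surrogate of cell viability.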

`CC(Cn1ccc(-c2ccc(C#N)c(Cl)c2)n1)NC(=O)c1cc(C(C)O)[nH]n1` (stereo not drawn) + CC(Nc1ccc2c(c1)OCCn1cc(N3C(=O)OCC3C(F)F)nc1-2)C(N)=O was tested, and the pIC50 (second compound 0.00316 µM) was < 5.00, the pIC50 (second compound 0.01 µM) was < 5.00 and the pIC50 (second compound 0.0316 µM) was < 5.00. The pIC50 (second compound 0.1 µM) was < 5.00, the pIC50 (second compound 0.316 µM) was < 5.00 and the pIC50 (second compound 1 µM) was < 5.00. For the same molecule, the viability, T/C [1] was 109%, the viability, T/C [2] was 112% and the viability, T/C [3] was 126%. The viability, T/C [4] was 93.5%, the viability, T/C [5] was 125% and the viability, T/C [6] was 105%. The viability, T/C [7] was 115%, the viability, T/C [8] was 78.3% and the viability, T/C [9] was 126%. The viability, T/C [10] was 101%, the viability, T/C [11] was 102% and the viability, T/C [12] was 117%. For the same molecule, the viability, T/C [13] was 82.6%, the viability, T/C [14] was 104% and the viability, T/C [15] was 101%. For the same molecule, the viability, T/C [16] was 97.1%, the viability, T/C [17] was 93.7% and the viability, T/C [18] was 84.8%. For the same molecule, the viability, T/C [19] was 84.5%, the viability, T/C [20] was 74.1% and the viability, T/C [21] was 75%. For the same molecule, the viability, T/C [22] was 83.9%, the viability, T/C [23] was 85.2% and the viability, T/C [24] was 67.4%. The viability, T/C [25] was 75.7%, the viability, T/C [26] was 72.3% and the viability, T/C [27] was 76.4%. The viability, T/C [28] was 62.4%, the viability, T/C [29] was 69.4% and the viability, T/C [30] was 78.2%. For the same molecule, the viability, T/C [31] was 59.8%, the viability, T/C [32] was 54% and the viability, T/C [33] was 66.7%. The viability, T/C [34] was 51%, the viability, T/C [35] was 61.2% and the viability, T/C [36] was 60.2%.

`CCN1CCN(Cc2ccc(Nc3ncc(F)c(-c4cc(F)c5nc(C)n(C(C)C)c5c4)n3)nc2)CC1` + CC(Nc1ccc2c(c1)OCCn1cc(N3C(=O)OCC3C(F)F)nc1-2)C(N)=O was tested, and the pIC50 (second compound 0.00316 µM) was < 6.00, the pIC50 (second compound 0.01 µM) was < 6.00 and the pIC50 (second compound 0.0316 µM) was < 6.00. It also gave a pIC50 (second compound 0.1 µM) of 6.10, a pIC50 (second compound 0.316 µM) of 6.96 and a pIC50 (second compound 1 µM) of 7.26. The viability, T/C (second compound 0.00316 µM, first compound 0.00316 µM) was 94.2%, the viability, T/C (second compound 0.00316 µM, first compound 0.01 µM) was 73.2% and the viability, T/C [1] was 86.9%. It also gave a viability, T/C [2] of 75.2%, a viability, T/C [3] of 80.9% and a viability, T/C [4] of 70.5%. The viability, T/C (second compound 0.01 µM, first compound 0.00316 µM) was 94.9%, the viability, T/C (second compound 0.01 µM, first compound 0.01 µM) was 74.8% and the viability, T/C [7] was 71.4%. It also gave a viability, T/C [8] of 93.2%, a viability, T/C [9] of 69.5% and a viability, T/C [10] of 67.7%. It also gave a viability, T/C (second compound 0.0316 µM, first compound 0.00316 µM) of 77.6%, a viability, T/C (second compound 0.0316 µM, first compound 0.01 µM) of 81.3% and a viability, T/C [13] of 79.2%. For the same molecule, the viability, T/C [14] was 86.8%, the viability, T/C [15] was 63.4% and the viability, T/C [16] was 52.3%. The viability, T/C (second compound 0.1 µM, first compound 0.00316 µM) was 62.7%, the viability, T/C (second compound 0.1 µM, first compound 0.01 µM) was 64.6% and the viability, T/C [19] was 69.8%. It also gave a viability, T/C [20] of 65.1%, a viability, T/C [21] of 47.3% and a viability, T/C [22] of 51.3%. The viability, T/C (second compound 0.316 µM, first compound 0.00316 µM) was 62.7%, the viability, T/C (second compound 0.316 µM, first compound 0.01 µM) was 54.9% and the viability, T/C [25] was 57.4%. It also gave a viability, T/C [26] of 47.5%, a viability, T/C [27] of 48.6% and a viability, T/C [28] of 42.5%. It also gave a viability, T/C (second compound 1 µM, first compound 0.00316 µM) of 59.4%, a viability, T/C (second compound 1 µM, first compound 0.01 µM) of 52.2% and a viability, T/C [31] of 54.2%. For the same molecule, the viability, T/C [32] was 49.3%, the viability, T/C [33] was 35.5% and the viability, T/C [34] was 26%.

With `Cn1ncc(Cl)c1-c1cc(C(=O)NC(CN)Cc2cccc(F)c2)sc1Cl` (stereo not drawn) + CC(Nc1ccc2c(c1)OCCn1cc(N3C(=O)OCC3C(F)F)nc1-2)C(N)=O the pIC50 (second compound 0.00316 µM) was < 5.00, the pIC50 (second compound 0.01 µM) was < 5.00 and the pIC50 (second compound 0.0316 µM) was < 5.00. The pIC50 (second compound 0.1 µM) was < 5.00, the pIC50 (second compound 0.316 µM) was < 5.00 and the pIC50 (second compound 1 µM) was 5.38. The viability, T/C [1] was 102%, the viability, T/C [2] was 94.4% and the viability, T/C [3] was 86.6%. For the same molecule, the viability, T/C [4] was 75%, the viability, T/C [5] was 71% and the viability, T/C [6] was 61.3%. It also gave a viability, T/C [7] of 92.3%, a viability, T/C [8] of 93.3% and a viability, T/C [9] of 90.8%. It also gave a viability, T/C [10] of 67.1%, a viability, T/C [11] of 67.8% and a viability, T/C [12] of 71.3%. For the same molecule, the viability, T/C [13] was 91.2%, the viability, T/C [14] was 98% and the viability, T/C [15] was 75.2%. For the same molecule, the viability, T/C [16] was 83.2%, the viability, T/C [17] was 67.4% and the viability, T/C [18] was 55.8%. It also gave a viability, T/C [19] of 83.5%, a viability, T/C [20] of 72.5% and a viability, T/C [21] of 87.7%. For the same molecule, the viability, T/C [22] was 65%, the viability, T/C [23] was 55.8% and the viability, T/C [24] was 57.8%. For the same molecule, the viability, T/C [25] was 68%, the viability, T/C [26] was 66.9% and the viability, T/C [27] was 59.2%. For the same molecule, the viability, T/C [28] was 67.8%, the viability, T/C [29] was 59.9% and the viability, T/C [30] was 45.9%. The viability, T/C [31] was 63.1%, the viability, T/C [32] was 49.3% and the viability, T/C [33] was 53.9%. It also gave a viability, T/C [34] of 68.1%, a viability, T/C [35] of 53.9% and a viability, T/C [36] of 38.5%.

In the case of `Cn1nccc1Nc1nccc(-c2ccn(C(CO)c3ccc(Cl)c(F)c3)c(=O)c2)n1` (stereo not drawn) + CC(Nc1ccc2c(c1)OCCn1cc(N3C(=O)OCC3C(F)F)nc1-2)C(N)=O, the pIC50 (second compound 0.00316 µM) was < 5.00, the pIC50 (second compound 0.01 µM) was < 5.00 and the pIC50 (second compound 0.0316 µM) was < 5.00. The pIC50 (second compound 0.1 µM) was < 5.00, the pIC50 (second compound 0.316 µM) was < 5.00 and the pIC50 (second compound 1 µM) was 7.33. It also gave a viability, T/C [1] of 100%, a viability, T/C [2] of 89.8% and a viability, T/C [3] of 105%. It also gave a viability, T/C [4] of 71.5%, a viability, T/C [5] of 108% and a viability, T/C [6] of 101%. For the same molecule, the viability, T/C [7] was 107%, the viability, T/C [8] was 67.5% and the viability, T/C [9] was 81%. The viability, T/C [10] was 82.2%, the viability, T/C [11] was 91.8% and the viability, T/C [12] was 102%. It also gave a viability, T/C [13] of 80.8%, a viability, T/C [14] of 101% and a viability, T/C [15] of 76.8%. It also gave a viability, T/C [16] of 92%, a viability, T/C [17] of 70.9% and a viability, T/C [18] of 85.3%. The viability, T/C [19] was 72.3%, the viability, T/C [20] was 65.6% and the viability, T/C [21] was 79.3%. The viability, T/C [22] was 78.4%, the viability, T/C [23] was 72.9% and the viability, T/C [24] was 70.3%. It also gave a viability, T/C [25] of 62.5%, a viability, T/C [26] of 68% and a viability, T/C [27] of 60.2%. For the same molecule, the viability, T/C [28] was 78%, the viability, T/C [29] was 63.1% and the viability, T/C [30] was 46.6%. The viability, T/C [31] was 49.6%, the viability, T/C [32] was 48.3% and the viability, T/C [33] was 48.4%. It also gave a viability, T/C [34] of 41.6%, a viability, T/C [35] of 32.3% and a viability, T/C [36] of 31.2%.
